Calls of active or inactive are those of the source.
Legend:
Fatty acid synthase [1] = target: T1, Fatty acid synthase (Homo sapiens, UniProt P49327); assay: FAS thioesterase domain inhibitors, dose response, biochemical, endpoint fluorescence intensity, uHTS hits (AID 624327); assay type: functional;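 note: fluorescence from hydrolysis of an O-methyl fluorescein acyl ester substrate by the enzyme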
Fatty acid synthase [2] = target: T1, Fatty acid synthase; assay: FAS thioesterase domain inhibitors, dose response, biochemical, kinetic fluorescence intensity (AID 624326); assay type: functional;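 note: rate of fluorescence rise from hydrolysis of a fluorogenic O-methyl fluorescein ester substrate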
Cytochrome P450 3A4 = Cytochrome P450 3A4 (Homo sapiens, UniProt P08684); settings: Potency;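 note: confirmatory qHTS run detecting inhibitors and substrates of CYP3A4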
[3] = intracellular Trypanosoma cruzi inhibitors in host cells – cell-based, plate reader, cherry-pick samples, set 3, dose response (AID 651818); assay type: functional;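 note: compounds incubated with infected cells for about four days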
Estrogen receptor = target: T2, Estrogen receptor (Homo sapiens, UniProt P03372);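 note: potency for inhibiting coactivator peptide recruitment to the receptor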
T2 sequence (P03372 whole entry): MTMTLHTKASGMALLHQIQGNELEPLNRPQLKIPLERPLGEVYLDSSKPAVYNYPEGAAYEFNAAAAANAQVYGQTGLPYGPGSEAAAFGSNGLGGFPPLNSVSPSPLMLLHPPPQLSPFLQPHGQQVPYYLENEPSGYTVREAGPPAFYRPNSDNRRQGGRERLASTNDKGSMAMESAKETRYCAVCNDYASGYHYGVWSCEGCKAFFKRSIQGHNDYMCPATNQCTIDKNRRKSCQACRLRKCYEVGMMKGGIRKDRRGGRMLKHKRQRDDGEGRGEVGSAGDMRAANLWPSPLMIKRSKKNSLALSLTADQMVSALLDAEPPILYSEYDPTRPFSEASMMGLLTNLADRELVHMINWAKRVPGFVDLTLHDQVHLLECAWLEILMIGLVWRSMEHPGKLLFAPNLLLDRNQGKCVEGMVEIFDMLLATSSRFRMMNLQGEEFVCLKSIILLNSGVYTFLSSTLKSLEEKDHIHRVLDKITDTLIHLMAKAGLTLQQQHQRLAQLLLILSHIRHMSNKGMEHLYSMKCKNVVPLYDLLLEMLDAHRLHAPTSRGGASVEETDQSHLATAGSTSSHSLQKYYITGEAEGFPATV

[4] = inhibitors of intracellular T. cruzi replication, confirmation, NIH3T3 host cells, beta-gal luminescence (AID 2044); assay type: functional, cell-based;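 note: intracellular parasites grown in NIH/3T3 mouse fibroblasts as host cells; luminescent beta-galactosidase reporter signal from transgenic T. cruzi replicating inside host cells; inhibitors lower the luminescence signal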
[5] = cytotoxicity toward NIH3T3 fibroblasts, dose response, counter-screen, cell-based, ATP luminescence, mouse fibroblasts (AID 2010); assay type: functional;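 note: cells exposed to compound for about 90 hours before reading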
HEK293 [6] = assay: NOD1 signaling inhibitors, primary screen, cell-based, luminescence, uHTS (AID 1578); assay type: functional; settings: Homo sapiens
HEK293 [7] = assay: cells; assay type: functional, cell-based; settings: Homo sapiens
HEK293 [8] = assay: cells; assay type: functional, cell-based; settings: Homo sapiens; remark: listed apart in the source
[9] = target: Nucleotide-binding oligomerization domain-containing protein 2 (Homo sapiens, UniProt Q9HC29); assay: NOD2 signaling inhibitors, cell-based, luminescence, uHTS, HEK293 (AID 1566); assay type: functional
HEK293 [10] = assay: NOD2 signaling inhibitors in MDP-stimulated cells, cell-based, uHTS, luminescence (AID 2001); assay type: functional; settings: Homo sapiens
HEK293 [11] = assay: cells; assay type: functional, cell-based; settings: Homo sapiens; remark: listed apart in the source
Cytochrome P450 2C9 = Cytochrome P450 2C9 (Homo sapiens, UniProt P11712)
[12] = P. falciparum Dd2 growth inhibitors, dose response, SYBR Green, cherry-picked samples (AID 1159567); assay type: functional, cell-based
[13] = target: T3, DNA repair and recombination protein RAD54-like (Homo sapiens, UniProt Q92698); assay: inhibitors of human RAD54 branch migration, confirmation, biochemical, fluorescence, cherry-picked samples, dose series (AID 651657); assay type: functional
T3 sequence (Q92698 whole entry): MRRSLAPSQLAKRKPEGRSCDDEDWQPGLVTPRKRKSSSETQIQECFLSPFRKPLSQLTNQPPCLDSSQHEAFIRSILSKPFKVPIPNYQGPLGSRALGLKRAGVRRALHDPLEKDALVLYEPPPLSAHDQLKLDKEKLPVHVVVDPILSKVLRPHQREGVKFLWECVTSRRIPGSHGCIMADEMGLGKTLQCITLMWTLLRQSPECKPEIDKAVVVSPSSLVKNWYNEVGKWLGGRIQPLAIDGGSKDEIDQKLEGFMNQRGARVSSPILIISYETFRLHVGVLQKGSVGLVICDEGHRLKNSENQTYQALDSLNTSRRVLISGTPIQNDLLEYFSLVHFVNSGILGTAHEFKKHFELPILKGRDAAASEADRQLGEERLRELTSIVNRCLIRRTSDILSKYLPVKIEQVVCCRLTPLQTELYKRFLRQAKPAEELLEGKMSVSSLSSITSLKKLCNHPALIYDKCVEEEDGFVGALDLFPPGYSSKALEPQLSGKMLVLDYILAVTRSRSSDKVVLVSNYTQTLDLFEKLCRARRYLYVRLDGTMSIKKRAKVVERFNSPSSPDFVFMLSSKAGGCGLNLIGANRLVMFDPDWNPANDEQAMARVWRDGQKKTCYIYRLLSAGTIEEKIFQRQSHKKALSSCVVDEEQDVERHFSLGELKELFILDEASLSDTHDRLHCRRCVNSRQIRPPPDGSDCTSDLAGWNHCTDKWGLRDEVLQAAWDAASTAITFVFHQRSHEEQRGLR

INS1 = assay: beta cell apoptosis inhibitors, cytokine rescue, dose response, luminescence, retest (AID 449756); assay type: functional, cell-based; settings: Rattus norvegicus, INS1;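 note: cell death triggered by IL-1 beta plus TNF-alpha plus IFN-gamma mixture; protective hits raise ATP signal compared with cytokine alone wells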
[14] = target: T4, Adenosylmethionine-8-amino-7-oxononanoate aminotransferase (Mycobacterium tuberculosis, UniProt P9WQ81); assay: Mycobacterium tuberculosis BioA enzyme inhibitor Measured in Biochemical System Using Plate Reader - 2163-02_Inhibitor_Dose_CherryPick_Activity.; assay type: functional, Mycobacterium tuberculosis UT205
T4 sequence (P9WQ81 whole entry): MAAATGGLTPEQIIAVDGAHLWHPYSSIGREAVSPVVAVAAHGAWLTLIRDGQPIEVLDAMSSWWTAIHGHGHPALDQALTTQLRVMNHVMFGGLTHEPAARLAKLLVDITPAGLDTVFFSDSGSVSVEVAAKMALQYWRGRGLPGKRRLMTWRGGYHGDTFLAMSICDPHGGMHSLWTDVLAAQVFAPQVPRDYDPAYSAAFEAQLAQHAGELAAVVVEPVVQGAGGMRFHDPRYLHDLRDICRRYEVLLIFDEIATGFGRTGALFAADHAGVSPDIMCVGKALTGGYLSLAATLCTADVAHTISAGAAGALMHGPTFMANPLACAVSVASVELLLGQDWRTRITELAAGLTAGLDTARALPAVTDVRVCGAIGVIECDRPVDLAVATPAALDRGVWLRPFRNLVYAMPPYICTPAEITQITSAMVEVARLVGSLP

[15] = microbe, parasite or virus in culture; assay type: functional; settings: Mycobacterium tuberculosis
[16] = target: T5, Ubiquitin-conjugating enzyme E2 N (Homo sapiens, UniProt P61088); assay type: functional;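 note: Dose-response confirmation in a TR-FRET assay detecting UBC13-driven polyubiquitin chain formation, inhibition measured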
T5 sequence (P61088 whole entry): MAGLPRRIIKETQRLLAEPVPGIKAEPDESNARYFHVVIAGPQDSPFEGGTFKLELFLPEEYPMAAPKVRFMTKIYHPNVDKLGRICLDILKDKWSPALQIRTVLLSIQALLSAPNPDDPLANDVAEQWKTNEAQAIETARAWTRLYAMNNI

Vero = assay: cells; assay type: functional; settings: Chlorocebus sabaeus

Sequence of Nucleotide-binding oligomerization domain-containing protein 2 (Q9HC29 whole entry, the tested form may be a part): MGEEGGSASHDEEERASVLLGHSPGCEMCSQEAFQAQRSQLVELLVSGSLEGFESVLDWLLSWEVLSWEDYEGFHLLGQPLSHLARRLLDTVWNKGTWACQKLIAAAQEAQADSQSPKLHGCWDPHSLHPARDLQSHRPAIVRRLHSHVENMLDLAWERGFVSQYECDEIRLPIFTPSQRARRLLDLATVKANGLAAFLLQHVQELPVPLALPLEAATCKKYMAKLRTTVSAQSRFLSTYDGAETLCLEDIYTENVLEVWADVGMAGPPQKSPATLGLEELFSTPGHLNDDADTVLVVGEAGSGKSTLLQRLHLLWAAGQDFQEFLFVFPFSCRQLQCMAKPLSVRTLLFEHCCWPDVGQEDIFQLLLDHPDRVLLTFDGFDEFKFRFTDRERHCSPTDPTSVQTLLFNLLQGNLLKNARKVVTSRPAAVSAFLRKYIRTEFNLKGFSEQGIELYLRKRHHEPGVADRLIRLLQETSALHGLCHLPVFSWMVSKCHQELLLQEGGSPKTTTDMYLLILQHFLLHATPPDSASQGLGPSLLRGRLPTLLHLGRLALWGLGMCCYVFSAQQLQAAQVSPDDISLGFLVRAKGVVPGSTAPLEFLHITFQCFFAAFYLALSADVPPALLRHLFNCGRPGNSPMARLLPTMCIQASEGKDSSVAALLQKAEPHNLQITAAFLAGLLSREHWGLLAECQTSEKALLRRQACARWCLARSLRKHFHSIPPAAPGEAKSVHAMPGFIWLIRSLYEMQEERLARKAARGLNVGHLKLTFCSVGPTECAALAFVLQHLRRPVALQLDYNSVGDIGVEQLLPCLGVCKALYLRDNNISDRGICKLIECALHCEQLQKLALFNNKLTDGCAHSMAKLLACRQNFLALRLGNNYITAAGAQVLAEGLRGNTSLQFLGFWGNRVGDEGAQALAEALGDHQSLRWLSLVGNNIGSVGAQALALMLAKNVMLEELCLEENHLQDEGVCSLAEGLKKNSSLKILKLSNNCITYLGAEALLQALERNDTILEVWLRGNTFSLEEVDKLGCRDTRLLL
Sequence of Cytochrome P450 3A4 (P08684 whole entry): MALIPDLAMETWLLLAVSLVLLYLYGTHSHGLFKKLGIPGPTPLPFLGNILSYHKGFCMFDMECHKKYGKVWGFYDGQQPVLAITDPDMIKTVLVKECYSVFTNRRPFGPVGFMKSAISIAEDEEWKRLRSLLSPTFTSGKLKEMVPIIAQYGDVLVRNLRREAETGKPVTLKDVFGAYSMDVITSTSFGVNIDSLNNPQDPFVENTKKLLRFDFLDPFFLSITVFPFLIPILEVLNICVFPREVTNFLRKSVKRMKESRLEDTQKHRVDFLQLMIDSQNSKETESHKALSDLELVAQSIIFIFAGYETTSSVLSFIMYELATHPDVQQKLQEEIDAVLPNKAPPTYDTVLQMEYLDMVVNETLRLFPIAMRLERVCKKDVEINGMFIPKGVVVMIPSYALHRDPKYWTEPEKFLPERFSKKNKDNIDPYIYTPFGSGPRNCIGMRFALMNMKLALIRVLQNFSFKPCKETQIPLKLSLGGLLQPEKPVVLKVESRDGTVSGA
T1 sequence (P49327 whole entry, the tested form may be a part): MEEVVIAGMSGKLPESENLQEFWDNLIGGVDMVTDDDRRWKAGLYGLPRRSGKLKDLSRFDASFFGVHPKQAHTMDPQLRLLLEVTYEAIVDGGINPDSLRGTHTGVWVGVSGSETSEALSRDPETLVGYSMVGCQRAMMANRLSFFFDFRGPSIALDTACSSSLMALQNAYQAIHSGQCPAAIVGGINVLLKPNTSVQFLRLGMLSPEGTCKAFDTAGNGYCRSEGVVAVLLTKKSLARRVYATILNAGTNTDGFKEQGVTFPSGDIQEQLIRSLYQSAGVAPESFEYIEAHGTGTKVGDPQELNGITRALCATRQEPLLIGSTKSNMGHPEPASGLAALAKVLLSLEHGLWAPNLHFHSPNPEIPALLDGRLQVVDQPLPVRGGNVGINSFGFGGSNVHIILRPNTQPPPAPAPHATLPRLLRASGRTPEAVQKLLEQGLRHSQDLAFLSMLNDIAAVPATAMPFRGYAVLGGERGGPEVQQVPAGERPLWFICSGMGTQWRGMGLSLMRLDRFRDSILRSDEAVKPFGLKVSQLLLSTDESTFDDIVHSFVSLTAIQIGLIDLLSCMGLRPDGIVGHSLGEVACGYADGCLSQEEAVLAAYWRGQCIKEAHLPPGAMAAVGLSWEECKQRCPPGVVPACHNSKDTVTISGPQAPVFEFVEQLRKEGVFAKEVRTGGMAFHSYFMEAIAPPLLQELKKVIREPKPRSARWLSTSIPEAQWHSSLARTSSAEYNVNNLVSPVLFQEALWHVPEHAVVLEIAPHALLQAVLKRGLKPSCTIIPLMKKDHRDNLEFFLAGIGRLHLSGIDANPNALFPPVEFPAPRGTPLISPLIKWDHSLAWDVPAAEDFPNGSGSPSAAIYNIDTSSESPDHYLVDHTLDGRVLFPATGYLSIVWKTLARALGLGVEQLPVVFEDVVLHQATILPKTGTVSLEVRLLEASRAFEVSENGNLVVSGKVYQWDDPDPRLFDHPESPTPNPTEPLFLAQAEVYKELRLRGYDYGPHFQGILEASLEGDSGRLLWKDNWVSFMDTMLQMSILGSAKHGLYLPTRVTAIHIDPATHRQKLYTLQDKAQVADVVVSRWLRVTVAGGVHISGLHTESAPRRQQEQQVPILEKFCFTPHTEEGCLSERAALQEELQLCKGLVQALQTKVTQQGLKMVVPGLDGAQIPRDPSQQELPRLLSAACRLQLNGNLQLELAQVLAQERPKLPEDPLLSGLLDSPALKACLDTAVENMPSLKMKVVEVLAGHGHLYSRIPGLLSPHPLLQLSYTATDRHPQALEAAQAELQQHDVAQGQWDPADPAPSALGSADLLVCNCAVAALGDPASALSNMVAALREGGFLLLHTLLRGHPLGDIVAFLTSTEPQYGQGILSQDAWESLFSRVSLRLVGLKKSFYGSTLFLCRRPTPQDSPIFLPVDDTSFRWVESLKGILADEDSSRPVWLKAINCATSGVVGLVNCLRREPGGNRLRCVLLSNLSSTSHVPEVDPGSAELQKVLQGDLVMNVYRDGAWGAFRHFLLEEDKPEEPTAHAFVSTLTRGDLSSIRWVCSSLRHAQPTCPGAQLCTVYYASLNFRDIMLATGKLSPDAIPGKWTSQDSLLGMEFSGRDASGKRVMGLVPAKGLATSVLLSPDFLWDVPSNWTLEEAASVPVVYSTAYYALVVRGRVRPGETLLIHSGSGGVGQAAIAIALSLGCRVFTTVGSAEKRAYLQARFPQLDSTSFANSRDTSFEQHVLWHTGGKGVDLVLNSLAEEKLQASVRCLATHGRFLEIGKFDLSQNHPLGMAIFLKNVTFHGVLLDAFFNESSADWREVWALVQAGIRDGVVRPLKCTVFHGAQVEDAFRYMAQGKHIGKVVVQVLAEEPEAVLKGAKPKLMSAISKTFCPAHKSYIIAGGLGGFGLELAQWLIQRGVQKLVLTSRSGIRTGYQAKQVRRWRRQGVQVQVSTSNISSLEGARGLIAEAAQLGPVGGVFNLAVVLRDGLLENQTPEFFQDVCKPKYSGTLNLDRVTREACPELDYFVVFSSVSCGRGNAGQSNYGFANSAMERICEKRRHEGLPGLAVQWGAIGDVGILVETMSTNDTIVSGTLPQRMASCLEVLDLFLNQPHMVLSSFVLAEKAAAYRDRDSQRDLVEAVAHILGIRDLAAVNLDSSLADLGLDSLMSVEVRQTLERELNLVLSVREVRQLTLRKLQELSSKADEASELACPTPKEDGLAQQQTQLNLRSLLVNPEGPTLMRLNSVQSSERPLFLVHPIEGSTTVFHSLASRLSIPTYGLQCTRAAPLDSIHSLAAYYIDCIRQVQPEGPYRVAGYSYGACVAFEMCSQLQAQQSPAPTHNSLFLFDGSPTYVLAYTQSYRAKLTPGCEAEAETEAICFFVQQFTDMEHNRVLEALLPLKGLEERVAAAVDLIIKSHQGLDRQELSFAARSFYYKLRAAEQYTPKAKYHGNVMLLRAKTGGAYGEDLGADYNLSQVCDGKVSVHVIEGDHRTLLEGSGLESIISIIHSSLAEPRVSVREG
Sequence of Cytochrome P450 2C9 (P11712 whole entry): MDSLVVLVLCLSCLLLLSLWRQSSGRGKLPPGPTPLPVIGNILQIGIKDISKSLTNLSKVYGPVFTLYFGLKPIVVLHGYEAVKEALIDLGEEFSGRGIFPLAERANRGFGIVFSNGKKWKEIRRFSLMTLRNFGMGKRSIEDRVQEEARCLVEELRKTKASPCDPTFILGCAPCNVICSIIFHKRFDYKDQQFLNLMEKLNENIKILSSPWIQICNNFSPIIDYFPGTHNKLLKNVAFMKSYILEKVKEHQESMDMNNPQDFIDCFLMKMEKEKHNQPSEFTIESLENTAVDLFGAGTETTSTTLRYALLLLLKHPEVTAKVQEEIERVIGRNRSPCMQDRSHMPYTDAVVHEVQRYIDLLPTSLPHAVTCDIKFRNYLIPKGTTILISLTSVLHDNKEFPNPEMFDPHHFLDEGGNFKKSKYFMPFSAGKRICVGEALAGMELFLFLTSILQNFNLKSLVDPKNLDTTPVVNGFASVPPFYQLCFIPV

Cc1ccccc1Cn1c(C)nc2ccc([N+](=O)[O-])cc2c1=O
IC50 (Fatty acid synthase [1]): 9.84 µM (active) | IC50 (Fatty acid synthase [2]): 7.08 µM (active)

Cc1ccc([N+](=O)[O-])cc1S(=O)(=O)NCC1COc2ccccc2O1 (centres undefined)
IC50 (Fatty acid synthase [1]): 5.17 µM (active) | IC50 (Fatty acid synthase [2]): 4.43 µM (active)

COC(=O)N1[C@H](C)C=C[C@]1(Cc1ccccc1)C(=O)NCc1ccc(C)o1
AC50 (Cytochrome P450 3A4): 7.94 µM (inconclusive)

C[C@@H]1CCCCO[C@@H](CN(C)CC2CCCCC2)[C@@H](C)CN([C@H](C)CO)C(=O)c2cc(NS(=O)(=O)c3ccc(Cl)cc3)ccc2O1
AC50 [3]: 2.18 µM (active)

C[C@H](CO)N1C[C@H](C)[C@H](CN(C)Cc2ccccc2)Oc2ccc(NC(=O)Nc3ccc(C(F)(F)F)cc3)cc2C1=O
AC50 [3]: 6.57 µM (active)

C[C@H]1CN([C@@H](C)CO)C(=O)Cc2cc(NC(=O)Nc3ccc(C(F)(F)F)cc3)ccc2O[C@@H]1CN(C)Cc1ccc(C(F)(F)F)cc1
AC50 [3]: 5.04 µM (active)

COc1cc2c(C)nc3onc(-c4ccccc4)c3c2cc1OC
IC50 (Fatty acid synthase [1]): 7.51 µM (active) | IC50 (Fatty acid synthase [2]): 19.4 µM (active)

CSc1cccc(NC(=O)CN(c2ccccc2)S(=O)(=O)N(C)C)c1
IC50 (Estrogen receptor): > 50 µM (not active)

Cc1nc2ccc([N+](=O)[O-])cc2c(=O)n1Cc1ccc(Br)cc1
IC50 (Fatty acid synthase [1]): 0.623 µM (active) | IC50 (Fatty acid synthase [2]): 0.719 µM (active)

COc1ccccc1CN1CC(C(=O)NCCN(C)CCc2ccccc2)CCC1=O (centres undefined)
EC50 (cells): 0.061 µM (active) | EC50 [4]: < 0.1 µM (active) | EC50 [5]: > 60 µM (not active)

Cc1cc(OCC(=O)Nc2ccncc2)cc(C)c1Br
EC50 (HEK293 [6]): 3.21 µM (active) | IC50 (HEK293 [7]): 5.24 µM (active) | IC50 (HEK293 [8]): > 20 µM (inactive) | EC50 [9]: 8.76 µM (active) | IC50 (HEK293 [10]): 6.86 µM (active) | IC50 (HEK293 [11]): 13.3 µM (active)

O=C(NCc1cn(-c2ccccc2)nc1-c1ccccc1)c1cc([N+](=O)[O-])cc([N+](=O)[O-])c1
EC50 (cells): 0.139 µM (active) | EC50 [4]: < 0.1 µM (active) | AC50 (Cytochrome P450 2C9): 2.82 µM (inconclusive) | EC50 [5]: > 60 µM (not active)

COc1ccc2[nH]c3nc(SCc4nnc(-c5ccc(C)cc5)o4)nnc3c2c1
IC50 (Estrogen receptor): 6.84 µM (active)

Fc1ccc(F)c(CNc2ncnc3cc(Cl)ccc23)c1
EC50 (HEK293 [6]): 9.76 µM (active) | IC50 (HEK293 [7]): 6.42 µM (active) | IC50 (HEK293 [8]): > 20 µM (inactive) | EC50 [9]: > 20 µM (inactive) | IC50 (HEK293 [10]): 12.7 µM (inactive) | IC50 (HEK293 [11]): 11.9 µM (active)

COc1ccccc1NC(=O)CSc1nc2sc(C)c(C)c2c(=O)n1C
EC50 (HEK293 [6]): > 20 µM (inactive) | IC50 (HEK293 [7]): 12.7 µM (active) | IC50 (HEK293 [8]): > 20 µM (inactive) | EC50 [9]: > 20 µM (inactive) | IC50 (HEK293 [10]): 8.8 µM (active) | IC50 (HEK293 [11]): > 20 µM (inactive)

C[C@H](CO)N1C[C@H](C)[C@@H](CN(C)Cc2ccc(-c3ccccc3)cc2)Oc2c(NC(=O)c3ccc(-c4nccs4)cc3)cccc2C1=O
AC50 [3]: 3.54 µM (active) | AC50 [12]: 5.28 µM (active)

O=S(=O)(Nc1nc2ccccc2nc1Nc1ccc2c(c1)OCO2)c1ccc(F)cc1
EC50 (HEK293 [6]): 2.81 µM (active) | IC50 (HEK293 [7]): 8.92 µM (active) | IC50 (HEK293 [8]): > 20 µM (inactive) | EC50 [9]: 11.6 µM (active) | IC50 (HEK293 [10]): 6.29 µM (active) | IC50 (HEK293 [11]): > 20 µM (inactive)

CCN(CC)CC(=O)Nc1cccc2c1C(=O)c1ccccc1C2=O
AC50 [13]: 100 µM (inactive)

COc1ccc(C(=O)CSc2nnc(C3CCCCC3)n2N)c(OC)c1
IC50 (Estrogen receptor): > 50 µM (not active)

CCCCCCOc1ccc(CN2CCN(C)CC2)cc1
EC50 (cells): 0.076 µM (active) | AC50 (INS1): 4.04 µM (active) | EC50 [4]: < 0.1 µM (active) | EC50 [5]: 4.32 µM (active)

CC(=O)C1=C(O)C=C2Oc3c(C(C)=O)c(O)c(C)c(O)c3[C@]2(C)C1=O [(-)-USNIC ACID]
AC50 (Cytochrome P450 3A4): 31.6 µM (inconclusive)

C/C=C/c1ccc2c(c1)O[C@@H](CN(C)C(=O)Nc1ccc(F)cc1)[C@@H](C)CN([C@@H](C)CO)S2(=O)=O
AC50 [14]: 4.65 µM (active)

CC(C)CNC(=O)c1c(N)n(/N=C/c2ccccn2)c2nc3ccccc3nc12
IC50 (Estrogen receptor): 15.9 µM (active)

COCCNC(=O)C[C@H]1CC[C@@H]2[C@H](COc3ccc(NC(=O)Nc4cccc(F)c4)cc3C(=O)N2C)O1
AC50 [14]: 6.86 µM (active)

COc1ccc([N+](=O)[O-])cc1C(=O)NC1CCN(Cc2ccccc2)CC1
AC50 [14]: 2.3 µM (active)

CC/C(=C(\c1ccc(O)cc1)c1ccc(OCCN(C)C)cc1)c1ccccc1 [AFIMOXIFENE]
CC50 [15]: 16.6 µM (active) | IC50 [16]: > 20 µM (inactive) | CC50 (Vero): 19.4 µM (active) | AC50 (Cytochrome P450 3A4): 25.1 µM (inconclusive)

C[C@@H]1CN([C@@H](C)CO)C(=O)Cc2cc(NC(=O)Cn3cnnn3)ccc2O[C@H]1CN(C)Cc1ccc2c(c1)OCO2
AC50 [14]: 10.5 µM (active)

Cc1c(-c2cc(Br)ccc2O)nc2cc3c(cc2c1C)OCO3
AC50 [13]: 57.5 µM (active)

— ChEMBL document CHEMBL1201862, “PubChem BioAssay data set” (2004)
